Results on one molecule are retold here after patent US20160145242A1, “PHENYLIMIDAZOLE DERIVATIVE, AND THERAPEUTIC MEDICINE OR PREVENTIVE MEDICINE FOR INFLAMMATORY DISEASE, ETC” (NIPPON SODA CO., LTD., priority 2013, published 2016).

For orientation: IC50 means the concentration that inhibits the measured activity by half. A lower IC50 goes with greater potency.

One series deals with T1, CYP2D6 (Homo sapiens, UniProt P10635).
T1 construct: Using human liver microsomes pooled as an enzyme source; from tissue; host or cells: pooled human liver microsomes
T1 sequence (P10635 whole entry): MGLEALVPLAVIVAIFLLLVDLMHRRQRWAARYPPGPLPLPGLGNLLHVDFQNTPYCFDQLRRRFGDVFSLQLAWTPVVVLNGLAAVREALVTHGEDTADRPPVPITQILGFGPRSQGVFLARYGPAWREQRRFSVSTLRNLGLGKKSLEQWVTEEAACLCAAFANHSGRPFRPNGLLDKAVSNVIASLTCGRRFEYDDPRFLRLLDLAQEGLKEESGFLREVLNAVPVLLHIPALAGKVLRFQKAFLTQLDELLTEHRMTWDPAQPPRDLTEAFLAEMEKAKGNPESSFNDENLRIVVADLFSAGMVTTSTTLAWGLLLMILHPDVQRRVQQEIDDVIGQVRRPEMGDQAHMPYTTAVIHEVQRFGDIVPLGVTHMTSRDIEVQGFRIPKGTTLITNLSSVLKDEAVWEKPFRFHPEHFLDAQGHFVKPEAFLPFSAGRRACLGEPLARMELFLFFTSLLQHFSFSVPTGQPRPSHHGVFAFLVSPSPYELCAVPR
As to the kind of experiment: Cytochrome P450 inhibitory action, CYP2D6 in human liver microsomes. Format: in vitro ADME. The settings on record: substrate dextromethorphan. The method, then:
(§1) An inhibitory action of the compound of the present invention with respect to CYP2D6 (dextromethorphan was used as a substrate) and CYP3A4 (midazolam and testosterone were used as substrates) which are isozymes of cytochrome P450 (hereinafter, referred to as “CYP”) serving as a major drug-metabolizing enzyme was examined using human liver microsomes.
Using human liver microsomes pooled as an enzyme source, 1.3 mM NADP as a coenzyme, 3.3 mM D-glucose-6-phosphate, and 0.4 U/mL D-glucose-6-phosphate dehydrogenase, the corresponding substrate ([…] dextromethorphan for CYP2D6, 5 μM midazolam or 50 µM testosterone for CYP3A4) and the compound of the present invention were added such that the final concentration became 0.1, 1, 10 μM and then incubated at 37° C. for 10 minutes. The inhibition rate (%) of the compound of the present invention in each concentration was calculated by quantifying metabolites (CYP2D6; dextrorphan, CYP3A4; 1-hydroxymidazolam or 6β hydroxytestosterone) using HPLC-MS/MS and setting the value of the activity of an enzyme when drug was not incorporated therein as 100%. […]
In general terms: Microsomes from liver hold many membrane-bound enzymes, among them those of drug oxidation.

A further series addresses T2, CYP3A4 (Homo sapiens, UniProt P08684).
T2 construct: Using human liver microsomes pooled as an enzyme source; from tissue; host or cells: pooled human liver microsomes
Put plainly: Cytochrome P450 inhibitory action, CYP3A4 in human liver microsomes. In kind it is in vitro ADME. The note with it: for inhibition at 10 min, 10 µM: pooled human liver microsomes, read-out: inhibition rate in the shown concentration. The method, then: as §1
Using human liver microsomes pooled as an enzyme source, 1.3 mM NADP as a coenzyme, 3.3 mM D-glucose-6-phosphate, and 0.4 U/mL D-glucose-6-phosphate dehydrogenase, the corresponding substrate ([…] dextromethorphan for CYP2D6, 5 μM midazolam or 50 µM testosterone for CYP3A4) and the compound of the present invention were added such that the final concentration became 0.1, 1, 10 μM and then incubated at 37° C. for 10 minutes. The inhibition rate (%) of the compound of the present invention in each concentration was calculated by quantifying metabolites (CYP2D6; dextrorphan, CYP3A4; 1-hydroxymidazolam or 6β hydroxytestosterone) using HPLC-MS/MS and setting the value of the activity of an enzyme when drug was not incorporated therein as 100%. 50% inhibitory concentration IC50 (μM) was calculated by drawing a straight line between the concentration where the inhibition rate exceeds 50% and the concentration where the inhibition rate is less than 50% in a graph showing a relationship between the inhibition rate and the concentration and interpolating the concentration that becomes 50% inhibition.

In series [1] the target is T3, guinea pig lung-derived leukotriene C4 synthase (Cavia porcellus, UniProt A6XA80).
T3 construct: guinea pig lung-derived leukotriene C4 synthase; from tissue; host or cells: Dunkin-Hartley guinea pig lung
T3 sequence (A6XA80 1-150): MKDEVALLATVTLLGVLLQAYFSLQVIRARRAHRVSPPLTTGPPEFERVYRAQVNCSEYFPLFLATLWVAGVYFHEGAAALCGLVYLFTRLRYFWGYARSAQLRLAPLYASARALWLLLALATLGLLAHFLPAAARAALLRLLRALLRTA
As to the kind of experiment: Leukotriene C4 synthase activity inhibitory action. Format: biochemical. The note with it: read-out: leukotriene C4 synthase activity inhibition rate. The method, then: The inhibitory action according to the compound of the present invention with respect to the activity of the present enzyme was examined using guinea pig lung-derived leukotriene C4 synthase.
Dunkin-Hartley guinea pig lung-derived leukotriene C4 synthase was reacted with 2.50 μg/mL of leukotriene A4 and the amount of leukotriene C4 which was a reaction product was measured by an enzyme-linked immunosorbent assay. 3 μM of the compound of the present invention dissolved in dimethyl sulfoxide was added to the reaction system and the inhibition rate of leukotriene C4 generation (leukotriene C4 synthase activity inhibition rate) was measured.

In series [2] the test system is human recombinant MAP kinase 1. As to the kind of experiment: MAP kinase 1 activity inhibitory action. Format: biochemical. The note with it: 3 μM. As to the method: The inhibitory action of the compound of the present invention with respect to the activity of the present enzyme was examined using human recombinant MAP kinase 1.
The human recombinant MAP kinase 1 was reacted with 50.0 μg/mL of myelin basic protein and the amount of ^32P phosphorylated myelin basic protein which was a reaction product was measured by a radioactivity measurement method. 3 μM of the compound according to the present invention dissolved in dimethyl sulfoxide was added to the reaction system and the inhibition rate of ^32P phosphorylated myelin basic protein generation (MAP kinase 1 activity inhibition rate) was measured.

Series [3] concerns the target T4, guinea pig lung-derived leukotriene A4 hydrolase (Cavia porcellus, UniProt P19602).
T4 construct: guinea pig lung-derived leukotriene A4 hydrolase; from tissue; host or cells: Dunkin-Hartley guinea pig lung
T4 sequence (P19602 1-611): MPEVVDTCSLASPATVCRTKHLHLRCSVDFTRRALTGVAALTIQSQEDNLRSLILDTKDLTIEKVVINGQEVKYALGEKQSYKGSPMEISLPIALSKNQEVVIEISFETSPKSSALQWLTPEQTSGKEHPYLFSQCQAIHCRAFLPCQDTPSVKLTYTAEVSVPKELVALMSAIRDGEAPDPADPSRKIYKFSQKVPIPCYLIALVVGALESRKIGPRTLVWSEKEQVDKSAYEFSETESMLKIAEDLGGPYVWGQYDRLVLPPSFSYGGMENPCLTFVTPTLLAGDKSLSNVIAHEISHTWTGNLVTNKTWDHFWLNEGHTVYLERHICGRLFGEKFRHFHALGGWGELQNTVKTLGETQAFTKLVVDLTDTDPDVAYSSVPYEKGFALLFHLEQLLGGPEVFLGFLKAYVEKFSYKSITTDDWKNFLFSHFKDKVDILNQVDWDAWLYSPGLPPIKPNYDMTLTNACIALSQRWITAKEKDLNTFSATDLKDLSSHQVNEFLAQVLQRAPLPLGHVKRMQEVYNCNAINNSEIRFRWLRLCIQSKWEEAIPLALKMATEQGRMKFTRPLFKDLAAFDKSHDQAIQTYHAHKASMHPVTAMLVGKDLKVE
Put plainly: Leukotriene A4 hydrolase activity inhibitory action. In kind it is biochemical. The settings on record: read-out: leukotriene A4 hydrolase activity inhibition rate. The method, then: The inhibitory action of the compound according to the present invention with respect to the activity of the present enzyme was examined using guinea pig lung-derived leukotriene A4 hydrolase.
Dunkin-Hartley guinea pig lung-derived leukotriene A4 hydrolase was reacted with […] of leukotriene A4 and the amount of leukotriene B4 which was a reaction product was measured by an enzyme-linked immunosorbent assay. 3 μM of the compound of the present invention dissolved in dimethyl sulfoxide was added to the reaction system and the inhibition rate of leukotriene B4 generation (leukotriene A4 hydrolase activity inhibition rate) was measured.

Where two headings read alike, the source gives them in different places.

T2 sequence (P08684 whole entry): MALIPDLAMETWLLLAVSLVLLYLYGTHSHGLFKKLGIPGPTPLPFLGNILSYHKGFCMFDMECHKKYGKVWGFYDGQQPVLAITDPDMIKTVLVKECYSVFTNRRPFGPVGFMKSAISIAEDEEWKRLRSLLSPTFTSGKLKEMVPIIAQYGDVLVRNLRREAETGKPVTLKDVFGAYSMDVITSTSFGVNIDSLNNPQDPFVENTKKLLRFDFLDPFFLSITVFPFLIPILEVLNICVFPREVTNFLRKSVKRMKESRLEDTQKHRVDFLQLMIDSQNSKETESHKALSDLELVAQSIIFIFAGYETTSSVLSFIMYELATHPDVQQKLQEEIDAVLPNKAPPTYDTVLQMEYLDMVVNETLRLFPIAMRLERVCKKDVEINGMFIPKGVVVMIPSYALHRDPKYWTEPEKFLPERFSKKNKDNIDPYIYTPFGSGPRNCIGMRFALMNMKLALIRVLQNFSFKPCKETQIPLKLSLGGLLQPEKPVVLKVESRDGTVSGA

On to `CC(=O)N1CCN(c2ccc(N)c(-n3ccnc3)c2)CC1` [Compound 1-1, 4-acetyl-1-(4-amino-3-imidazole-1-yl-phenyl)piperazine], for which the inhibition at 10 min, 10 µM on CYP2D6 (pooled human liver microsomes, probe dextromethorphan (printed 5 M), 10 μM, read-out: inhibition rate in the shown concentration) was 36%; on CYP3A4 (probe midazolam (5 μM), substrate midazolam) it was 28%; at CYP3A4 (probe testosterone (50 M [sic]), substrate testosterone) it was 6%. The IC50 at CYP2D6, against CYP3A4 (substrate midazolam) and against CYP3A4 (substrate testosterone) was greater than 10 µM throughout. For the same molecule, the values for the inhibition at 3 µM in series [1] and in series [3] were 27% and 14%, respectively. In addition, the “MAP kinase 1 activity inhibition rate” value in series [2] turned out to be 13%.
